The values that follow come from patent publication US20130040982A1, “ORAL SUSTAINED RELEASE FORMULATION OF HUPERZINE A” (Yissum Research Development Company of the Hebrew …, priority 2010, published 2013).

Series [1] deals with intestinal tissue (duodenum, jejunum, colon). The class given is in vitro ADME, rat.
A further series is described as follows: in vivo. The note with it: rat, 0.5 mg/kg. The protocol:
All surgical and experimental procedures were reviewed and approved by the Animal Experimentation Ethics Committee of the Hebrew University Hadassah Medical School, Jerusalem. Male Wistar rats (Harlan, Israel), 290-350 grams in weight, were used for all surgical procedures.
Animals were anesthetized for the period of surgery by intra-peritoneal injection of 1 ml/kg of ketamine (9%)-xylazine (1%) solution. An indwelling cannula was placed in the right jugular vein of each animal for systemic blood sampling, as described in Jiang et al. [Curr Med Chem 2003, 10:2231-2252]. The cannula was tunneled beneath the skin and exteriorized at the dorsal part of the neck. After completion of the surgical procedure, the animals were transferred to metabolic cages to recover overnight (12-18 hours). During this recovery period and throughout the experiment, food, but not water, was deprived. Animals were randomly assigned to the different experimental groups.
In order to study the pharmacokinetic parameters of huperzine A, identical doses (0.5 mg/kg) of huperzine A dissolved in water were administered to 6 animals by oral gavage needle and to 6 animals by intravenous infusion through the jugular vein cannula followed by injection of 0.2 ml of heparinized saline (50 IU/ml) to ensure the delivery of the whole dose. Systemic blood samples (400 μl) were taken 5 minutes prior to dosing, and at various time periods post-dose, as indicated. To prevent dehydration, equal volumes of physiological solution were introduced to the rats following each withdrawal of a blood sample.
Another group (4 animals) received huperzine A as an intra-peritoneal injection. The doses, the vehicle and the volume used in the intra-peritoneal administration were similar to those used in the oral administration experiments.
Absorption of huperzine A from the colon was studied using an additional experimental group (7 animals). A cannula was placed to the cecum, tunneled beneath the skin and exteriorized at the dorsal part of the neck. Following overnight recovery, the animals were dosed through the colonic cannula and the pharmacokinetic experiment was conducted. The doses, the vehicle and the volume used in the colonic administration were similar to those used in the oral administration experiments. The drug was infused over the course of 90 minutes.
Absorption of huperzine A from the duodenum was studied using another experimental group (5 animals). A cannula was placed to the duodenum, tunneled beneath the skin and exteriorized at the dorsal part of the neck. Following overnight recovery, the animals were dosed through the duodenal cannula and the pharmacokinetic experiment was conducted. […]
Huperzine A concentrations in plasma samples were determined by an HPLC assay. The area under plasma concentrations versus time curves (AUC) for huperzine A in individual rats were analyzed using WinNonlin® Professional software version 5.0.1, according to the non-compartmental analysis model, as were other pharmacokinetic parameters (elimination constant (10; elimination half-life (T1/2); peak concentration (Cmax); and time to reach peak concentration (Tmax)). The absolute bioavailability (F) of huperzine A was calculated from the ratio of the AUCs normalized by dose after oral and intravenous administration.
All tested compounds were analyzed using a Waters 2695 Separation Module HPLC system with a Waters 2475 Fluorescence Detector and a Waters 2996 Photodiode Array Detector (Waters Corporation). […]

Series [2] is classed as physicochemical. The note with it: 1 μg/ml. On the procedure: 0.5 ml of a 1 μg/ml aqueous solution of huperzine A was placed in glass tubes and heated in an oven for 30, 60 or 90 minutes. The samples were then reconstituted with double-distilled water and the amount of remaining huperzine A was determined by HPLC, as described hereinabove.
The test system of a further series is Caco-2 cells. The class given is in vitro ADME. The protocol: Caco-2 cells were obtained from ATCC (Manassas, Va., USA) and grown in 75 cm^2 flasks with approximately 0.5-1×10^6 cells per flask, at a temperature of 37° C. in a 5% CO2 atmosphere with a relative humidity of 95%. The culture growth medium consisted of Dulbecco's Modified Eagle Medium (DMEM) supplemented with 10% heat-inactivated fetal bovine serum (FBS), 1% nonessential amino acids, and 2 mM L-glutamine. The medium was replaced twice weekly. All medium supplements were obtained from Biological Industries (Beth-Haemek, Israel).
Cells in a passage range of 52-60 were seeded at a density of […] on untreated culture inserts of a polycarbonate membrane with 0.4 μm pores and a surface area of 1.1 cm^2. The culture inserts containing Caco-2 monolayers were placed in Costar® 24-Transwell plates (12 mm wells). The culture medium was changed every other day. […]
The permeability coefficient (Papp) for each compound was calculated from the linear plot of drug accumulated versus time, using the following equation: […]
Intestinal permeability towards huperzine A was evaluated using an in vitro model with Caco-2 epithelial colorectal cell culture, and using an ex-vivo animal intestine model (Ussing chamber model), as described in the Materials and Methods section. […]

The conditions of series [3]: in vivo, po, cited from earlier work.

Read-outs that look alike come from different tables or passages of the source. Some results are limits rather than exact numbers.

What is called bioavailability is dose-corrected exposure relative to a reference, in per cent. Usually half-life stands for the time needed for the level to fall by half in the phase considered. Higher therefore signals slow decline.

Turning to `C/C=C1\[C@H]2C=C(C)C[C@]1(N)c1ccc(=O)[nH]c1C2` [huperzine A], the “permeability towards huperzine A in the colon” value in series [1] is “lower than in the jejunum and duodenum, but was still significant”. Besides, in the series “in vivo” (male, Wistar), the bioavailability was around 50% and the half-life was around 1.67 h. Besides, in the series “in vivo” (po), the “bioavailability following colonic infusion” value is recorded as “significantly lower than the bioavailability following oral bolus”, the “bioavailability following duodenal infusion” value was “at least as high as the bioavailability following oral bolus” and the “time of maximal plasma levels (Cmax)” value lay in the range of 25 to 30 min. In series [2], the “temperature at which degradation of huperzine A was observed” value was at least 150 °C. The “permeability coefficient (Papp)” value with Caco-2 cells is “lower than that of antipyrine, and higher than that of mannitol”. For the same compound, in series [3] (human), the bioavailability is listed as 99% and the half-lives is 6 to 12 h. In addition, in series [3], the “time to peak serum concentration” value was “approximately 1 hour”.
